# Test results: patent publication US20240425814A1, “SALTS OF DIPEPTIDES AND THEIR USES IN CELL CULTURE” (Evonik Operations GmbH, priority 2021, published 2024)
# Counter-ions that a name gives are not always drawn. Like-named read-outs stand apart in the source and are kept apart here. Positions of bridges follow the written chain, without caps; N, C: chain ends. Residues, ends and D or L forms follow the SMILES beside them. Chains are numbered I, II in the order given.
# Columns and labels:
# [1] = tested on: CHO-K1 cells; assay: In vitro cytotoxicity / viability assay (MTS) on CHO-K1 cells; format: cell-based, Chinese hamster; conditions: high concentration (tested at 1 and 10 mM), 24 h with dipeptide, samples adjusted to pH 7, vs control medium without (Lys-Cys)2
# Protocol: (§1) • The assay was performed with human bone marrow stromal cells, mesenchymal stem cells (MSC) or Chinese hamster ovary cells (subclone K1), respectively. In a first step, the cells were seeded in a transparent 96-well cell culture plate and incubated for 24 h in a CO2-Incubator (37° C., 5% CO2, 95% humidity) at a cell density of 10.000 cells/well and in a final volume of 100 μl/well. After the resting time of 24 hours the supernatants were discarded, and prepared dipeptide test compounds were added to the cells in a final volume of 100 μl/well. The control was rested in medium without dipeptide.
# (§2) All samples were dissolved directly in associated cell culture medium. pH values of the samples were adjusted to pH 7 in advance, to exclude an influence on the cell viability due to a potentially lower pH value.
# (§3) Different salt forms of (Lys-Cys)2 were tested in two different concentrations and each sample was tested in triplicates. […]
# (§4) As a result of the reduction of MTS into a formazan product by metabolically active cells, an absorbance signal of formazan could be measured at a wavelength of 490 nm in a multiplate reader. […]
# (§5) CHO-K1 as well as MSC cells were cultured for 24 hours before the addition of different (Lys-Cys)2 salts. […] After 24-hour cultivation with the dipeptides, the cell viability was assessed using the CellTiter 96® AQueous Non-Radioactive Cell Proliferation Assay (MTS).
# [2] = tested on: human bone marrow stromal cells, mesenchymal stem cells (MSC); assay: In vitro cytotoxicity / viability assay (MTS) on mesenchymal stem cells; format: cell-based; conditions: high concentration (tested at 1 and 10 mM), 24 h with dipeptide, samples adjusted to pH 7, vs control medium without (Lys-Cys)2
# Protocol: as §1, §2, §3, §4, §5
# [3] = Storage stability test of salt forms (HPLC); format: physicochemical
# Protocol: Storage stability tests at 25° C. and at 60° C. were conducted with the different salt forms of the (Lys-Cys) 2. Stability was measured with a HPLC method.
SMILES,cell viability [1],cell viability [2],"storage stability ([3]; storage at 25° C. and at 60° C., HPLC, compared with the chloride free, basic form)",storage stability [3]
"NCCCC[C@H](N)C(=O)N[C@@H](CSSC[C@H](NC(=O)[C@@H](N)CCCCN)C(=O)O)C(=O)O [2 HCl form, N,N′-di-L-lysyl-L-cystine dihydrochloride] (I: H-Lys-Cys-OH / II: H-Lys-Cys-OH; disulfide I:2-II:2)",improved cell viability,improved cell viability,significantly more stable,–
"Cl.Cl.Cl.Cl.NCCCC[C@H](N)C(=O)N[C@@H](CSSC[C@H](NC(=O)[C@@H](N)CCCCN)C(=O)O)C(=O)O [4 HCl form, N,N′-di-L-lysyl-L-cystine tetrahydrochloride] (I: H-Lys-Cys-OH / II: H-Lys-Cys-OH; disulfide I:2-II:2)",reduced cell viability,–,–,significantly more stable
